Entries after “also recorded” stand apart in the source; their conditions may differ.
How the values were obtained:
[1] = Stability assessment: storage for 4 weeks, HPLC analysis; format: physicochemical; details: for Stability assessment (HPLC), Open ACC: open state, accelerated condition (40° C., 75% RH); for Stability assessment (HPLC), Closed STR: sealed state, harsh condition, oven at 80° C.
Protocol: About 10-30 mg of the sample was stored for 4 weeks in an open state under the accelerated condition (40° C., 75% RH) or in a sealed state under the harsh condition in an oven at 80° C.

[2] = as above; format: physicochemical; details: stored at room temperature

Stability assessment (HPLC) ([1]; Initial, in % (unit assumed)): 98.72 | Stability assessment (HPLC), Open ACC ([1]; Day 3, in % (unit assumed)): 98.22 | Stability assessment (HPLC), Open ACC ([1]; Week 1, in % (unit assumed)): 98.45 | Stability assessment (HPLC), Open ACC ([1]; Week 2, in % (unit assumed)): 98.40 | Stability assessment (HPLC), Open ACC ([1]; Week 4, in % (unit assumed)): 98.32 | Stability assessment (HPLC), Closed STR ([1]; Day 3, in % (unit assumed)): 97.35 | Stability assessment (HPLC), Closed STR ([1]; Week 1, in % (unit assumed)): 97.28 | Stability assessment (HPLC), Closed STR ([1]; Week 2, in % (unit assumed)): 97.82 | Stability assessment (HPLC), Closed STR ([1]; Week 4, in % (unit assumed)): 97.30 | Stability assessment (HPLC), Closed RT ([2]; Week 2, in % (unit assumed)): 97.99 | Stability assessment (HPLC), Closed RT ([2]; Week 4, in % (unit assumed)): 97.74
Compound: CC(C)C(=O)N([C@H]1C[C@@H](C(=O)N2CCOCC2)N(C(=O)[C@@H]2CN(C(C)(C)C)C[C@H]2c2ccc(Cl)cc2)C1)[C@H]1CC[C@@H](C)CC1.Cl [Example 1, N-((3S, 5S)-1-((3S,4R)-1-(Tert-Butyl)-4-(4-Chlorophenyl) Pyrrolidine-3-Carbonyl)-5-(Morpholine-4-Carbonyl) Pyrrolidin-3-yl)-N-((1s,4R)-4-Methylcyclohexyl) Isobutyramide Hydrochloride]
chemical stability (result in words) ([1]; accelerated condition (40° C., 75% RH) and harsh condition (80° C.), 4 weeks, listed as crystalline form I, Hydrochloride): showed chemical stability for 4 weeks; also recorded: exhibited chemical stability for 4 weeks

Reference: patent publication US20230373984A1, “CRYSTALLINE FORM I OF MELANOCORTIN RECEPTOR AGONIST COMPOUND AND PREPARATION METHOD THEREFOR” (LG CHEM, LTD., priority 2020, published 2023)
